US5120842A, “Silyl ethers of rapamycin” (American Home Products Corporation, priority 1991, dated 1992)
Values after ≈ are worked out from the molar mass of the structure shown. Read-outs that look alike come from different tables or passages of the source.

Columns and labels:
[1] = system: cells from the thymus of normal BALB/c mice (lymphocyte proliferation); experiment: comitogen-induced thymocyte proliferation procedure (LAF); format: cell-based; conditions: Mus musculus
Protocol: Immunosuppressive activity was evaluated in an in vitro standard pharmacological test procedure to measure lymphocyte proliferation (LAF).
Briefly, cells from the thymus of normal BALB/c mice are cultured for 72 hours with PHA and IL-1 and pulsed with tritiated thymidine during the last six hours. Cells are cultured with and without various concentrations of rapamycin, cyclosporin A, or test compound. Cells are harvested and incorporated radioactivity is determined. Inhibition of lymphoproliferation is assessed as percent change in counts per minute from non-drug treated controls. The results are expressed as an IC50.

[2] = system: Candida albicans ATCC 38247; experiment: antifungal plate test procedure; format: cell-based; conditions: ATCC38247, strain ATCC 38247, plate disk test, read-out: MIC to inhibit growth
Protocol: (§1) Antifungal activity of a representative compound of this invention was measured against 5 strains of Candida albicans using a plate test procedure for measurement of inhibition. The following represents the typical procedure used. Compound to be tested was placed on sterile dried 1/4" plate disks, and allowed to dry. Agar plates were seeded with fungi and allowed to solidify. The impregnated disks were placed on the seeded Agar surface and incubated for the time required for the particular culture.

[3] = system: Candida albicans ATCC 10231; experiment: antifungal plate test procedure; format: cell-based; conditions: ATCC10231, strain ATCC 10231, plate disk test, read-out: MIC to inhibit growth
Protocol: as §1

Candida albicans 3669 = experiment: antifungal plate test procedure; format: cell-based; conditions: strain 3669, plate disk test, read-out: MIC to inhibit growth
Protocol: as §1

[4] = system: Candida albicans ATCC 38248; experiment: antifungal plate test procedure; format: cell-based; conditions: ATCC38248, strain ATCC 38248, plate disk test, read-out: MIC to inhibit growth
Protocol: as §1

[5] = system: Candida albicans ATCC 38246; experiment: antifungal plate test procedure; format: cell-based; conditions: ATCC38246, strain ATCC 38246, plate disk test, read-out: MIC to inhibit growth
Protocol: as §1

IgE-like antibodies = conditions: in vivo; cited from earlier work
Candida albicans = conditions: in vitro and in vivo; cited from earlier work
[6] = model for multiple sclerosis; cited from earlier work
[7] = model for rheumatoid arthritis; cited from earlier work
[8] = cited from earlier work
[9] = read-out: IC50 (LAF), 72 h culture with PHA and IL-1, tritiated thymidine last six hours, table 1

In the case of `CO[C@H]1C[C@@H]2CC[C@@H](C)[C@@](O)(O2)C(=O)C(=O)N2CCCC[C@H]2C(=O)O[C@H]([C@H](C)C[C@@H]2CC[C@@H](O[Si](C)(C)C(C)(C)C)[C@H](OC)C2)CC(=O)[C@H](C)/C=C(\C)[C@@H](O)[C@@H](OC)C(=O)[C@H](C)C[C@H](C)/C=C/C=C/C=C/1C` [Example 1, Rapamycin 42-O-[(1,1-Dimethylethyl)dimethylsilyl]ether], the IC50 [1, 9] is reported as 45.8 nM, the MIC [2] is reported as 0.2 µg/mL (≈ 0.194 µM) and the MIC [3] is reported as 0.2 µg/mL (≈ 0.194 µM). The MIC (Candida albicans 3669) was greater than 0.4 µg/mL, the MIC [4] was greater than 0.4 µg/mL and the MIC [5] was greater than 0.4 µg/mL.

For `CO[C@H]1C[C@@H]2CC[C@@H](C)[C@@](O)(O2)C(=O)C(=O)N2CCCC[C@H]2C(=O)O[C@H]([C@H](C)C[C@@H]2CC[C@@H](O)[C@H](OC)C2)CC(=O)[C@H](C)/C=C(\C)[C@@H](O)[C@@H](OC)C(=O)[C@H](C)C[C@H](C)/C=C/C=C/C=C/1C` [Rapamycin], the “inhibition of formation of IgE-like antibodies” value (IgE-like antibodies) is listed as “effectively inhibited the formation of IgE-like antibodies”, the IC50 [1, 9] is listed as 3.2 nM and the IC50 ([1]; read-out: IC50 (LAF), rapamycin-31-acetate and rapamycin evaluated contemporaneously) is listed as 7.8 nM. The antifungal activity (Candida albicans) was “antifungal activity, particularly against Candida albicans, both in vitro and in vivo”, the “effect in experimental allergic encephalomyelitis model” value [6] was “effective” and the “effect in adjuvant arthritis model” value [7] was “effective”. The antitumor activity ([8]; in combination with picibanil) was “shown to have antitumor activity”, the antitumor activity ([8]; rapamycin alone) was “shown to have antitumor activity” and the MIC [2] was 0.003 µg/mL (≈ 0.00328 µM). The MIC [3] was 0.003 µg/mL (≈ 0.00328 µM), the MIC (Candida albicans 3669) was 0.025 µg/mL (≈ 0.0273 µM) and the MIC [4] was 0.006 µg/mL (≈ 0.00656 µM). The MIC [5] was 0.025 µg/mL (≈ 0.0273 µM).

In the case of `CO[C@H]1C[C@@H]2CC[C@@H](C)[C@@](O)(O2)C(=O)C(=O)N2CCCC[C@H]2C(=O)O[C@H]([C@H](C)C[C@@H]2CC[C@@H](O)[C@H](OC)C2)CC(=O)[C@H](C)/C=C(\C)[C@@H](OC(C)=O)[C@@H](OC)C(=O)[C@H](C)C[C@H](C)/C=C/C=C/C=C/1C` [rapamycin-31-acetate, Rapamycin 31-acetate], the IC50 ([1]; rapamycin-31-acetate and rapamycin evaluated contemporaneously, read-out: IC50 (LAF)) is reported as 56.5 nM.
